Assay results published in US12582654B2, “Cyano-substituted pyridine and cyano-substituted pyrimidine compound and preparation method therefor and application thereof” (BEIJING SCITECH-MQ PHARMACEUTICALS LIMITED, priority 2019, dated 2026).

How the values were obtained:
FGFR4 kinase = FGFR4 kinase (Homo sapiens, UniProt P22455); assay: Inhibition of FGFR4 kinase activity (ULight-labeled JAK-1 peptide, EU665/EU615 reading); format: biochemical; conditions: FGFR4 kinase 3.85 nM, ATP 100 μM, enzymatic reaction 2 hours
Outline: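 TR-FRET kinase assay using 3.85 nM FGFR4, 100 μM ATP and 100 nM ULight-JAK-1 (Tyr1023) peptide; 5 min enzyme–compound preincubation, then 2 h at room temperature. Compounds at 11 3-fold dilutions from 2.5 μM down to 0.042 nM, 1% DMSO. IC50 from EU665/EU615 ratio inhibition curves.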

[1] = target: T1, Ba/F3 ETV6-FGFR4-V550L cells (Homo sapiens, UniProt P22455, V550L, cells depend on it); assay: Inhibition of cell proliferation (CCK-8), Ba/F3 ETV6-FGFR4-V550L cells; format: cell-based; conditions: 72 hours of incubation, read-out: Ba/F3 ETV6-FGFR4-V550L IC50
T1 construct: fused on or other part: N-terminal part of ETV6 (TEL), the oligomerising partner of the fusion; already named as the first entry; P41212 (Transcription factor ETV6)
Outline: (§1)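 Ba/F3 cells expressing ETV6-FGFR4 or ETV6-FGFR4-V550L exposed for 72 h to 9 concentrations from 4-fold serial dilution (0.25% DMSO final). Viability by CCK-8, OD 450 nm after 1–2 h at 37 °C, relative to untreated and cell-free blanks; IC50 from curve fitting.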

FGFR4 V550L kinase = FGFR4 V550L kinase (Homo sapiens, UniProt P22455, V550L); assay: Inhibition of FGFR4 V550L mutant kinase activity (ULight-labeled PolyGT, EU665/EU615 reading); format: biochemical; conditions: FGFR4 V550L kinase 1 nM, ATP 10 μM, enzymatic reaction 2 hours
Outline: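 TR-FRET kinase assay: 1 nM FGFR4 V550L, 10 μM ATP, 100 nM ULight-PolyGT substrate, 2 h at room temperature after 5 min compound–enzyme preincubation, 1% DMSO. Compound tested as 11-point 3-fold dilution from 2.5 μM to 0.042 nM final. Signal as EU665/EU615 ratio; IC50 fitted from % inhibition.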

Ba/F3 ETV6-FGFR4 cells = target: T2, Ba/F3 ETV6-FGFR4 cells (Homo sapiens, UniProt P22455); assay: Inhibition of cell proliferation (CCK-8), Ba/F3 ETV6-FGFR4 cells; format: cell-based; conditions: 72 hours of incubation, read-out: Ba/F3 ETV6-FGFR4 IC50
T2 construct: fused on or other part: N-terminal part of ETV6 (TEL), the oligomerising partner that makes the FGFR4 kinase constitutively active; P41212 (Transcription factor ETV6)
Outline: as §1

Sequence of FGFR4 V550L kinase (P22455 22-802 V550L): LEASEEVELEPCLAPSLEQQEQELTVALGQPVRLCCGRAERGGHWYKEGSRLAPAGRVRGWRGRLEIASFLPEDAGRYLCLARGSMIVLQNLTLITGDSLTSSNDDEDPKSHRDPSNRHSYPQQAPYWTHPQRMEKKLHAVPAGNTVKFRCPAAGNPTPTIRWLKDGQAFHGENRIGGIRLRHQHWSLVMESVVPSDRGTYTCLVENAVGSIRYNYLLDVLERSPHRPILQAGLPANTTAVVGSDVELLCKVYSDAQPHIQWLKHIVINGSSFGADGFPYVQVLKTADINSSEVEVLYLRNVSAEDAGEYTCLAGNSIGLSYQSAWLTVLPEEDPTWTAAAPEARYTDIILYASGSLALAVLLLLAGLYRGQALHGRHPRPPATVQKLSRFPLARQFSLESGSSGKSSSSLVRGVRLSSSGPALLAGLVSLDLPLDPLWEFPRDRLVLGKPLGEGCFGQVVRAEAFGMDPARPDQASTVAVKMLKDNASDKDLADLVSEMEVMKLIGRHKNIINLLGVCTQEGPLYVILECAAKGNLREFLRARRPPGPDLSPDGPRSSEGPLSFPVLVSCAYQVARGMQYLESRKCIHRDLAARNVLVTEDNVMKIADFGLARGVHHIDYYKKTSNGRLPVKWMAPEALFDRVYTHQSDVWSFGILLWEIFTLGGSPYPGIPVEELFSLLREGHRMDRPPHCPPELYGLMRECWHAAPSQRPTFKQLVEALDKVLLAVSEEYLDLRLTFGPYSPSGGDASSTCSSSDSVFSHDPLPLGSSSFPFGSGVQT
T1 sequence (P22455 whole entry V550L, the tested form may be a part): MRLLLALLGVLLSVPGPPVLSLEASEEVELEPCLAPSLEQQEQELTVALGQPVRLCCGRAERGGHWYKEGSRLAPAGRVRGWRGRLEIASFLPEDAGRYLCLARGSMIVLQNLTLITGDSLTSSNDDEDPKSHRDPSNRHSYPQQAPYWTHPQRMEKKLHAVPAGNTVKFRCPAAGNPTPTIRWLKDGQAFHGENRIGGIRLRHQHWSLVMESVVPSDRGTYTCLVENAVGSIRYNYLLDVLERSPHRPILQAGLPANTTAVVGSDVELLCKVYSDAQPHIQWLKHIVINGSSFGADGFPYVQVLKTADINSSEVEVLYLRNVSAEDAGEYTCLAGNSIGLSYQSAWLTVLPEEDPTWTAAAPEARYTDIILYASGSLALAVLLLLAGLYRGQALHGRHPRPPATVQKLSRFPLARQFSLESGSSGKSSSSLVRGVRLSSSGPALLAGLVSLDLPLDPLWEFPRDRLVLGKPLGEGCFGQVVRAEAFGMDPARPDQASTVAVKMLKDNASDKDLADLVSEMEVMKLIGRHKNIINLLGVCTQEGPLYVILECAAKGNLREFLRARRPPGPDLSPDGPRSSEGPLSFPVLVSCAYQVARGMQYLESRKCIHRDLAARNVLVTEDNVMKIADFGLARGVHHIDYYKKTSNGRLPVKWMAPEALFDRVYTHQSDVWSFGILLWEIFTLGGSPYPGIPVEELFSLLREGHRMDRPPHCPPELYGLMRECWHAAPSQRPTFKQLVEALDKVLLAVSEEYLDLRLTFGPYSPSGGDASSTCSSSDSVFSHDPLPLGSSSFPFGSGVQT
T2 sequence (P22455 whole entry, change not shown, the tested form may be a part): as the sequence (P22455 whole entry V550L, the tested form may be a part) above, with L550V counted along it
Sequence of FGFR4 kinase (P22455 22-802): as the sequence (P22455 22-802 V550L) above, with L529V counted along it

Structure (SMILES)	IC50 (FGFR4 kinase)	GI50 [1]	IC50 (FGFR4 V550L kinase)	GI50 (Ba/F3 ETV6-FGFR4 cells)
C=CC(=O)Nc1cc(N2CCC(N(C)C3CC3)CC2)ccc1Nc1ncc(C#N)c(Nc2ccccc2OC(C)C)n1 [Example 63, N-(2-((5-cyano-4-((2-isopropoxyphenyl)amino)pyrimidin-2-yl)amino)-5-(4-(cyclopropyl (methyl)amino)piperidin-1-yl)phenyl) acrylamide]	≤ 10 nM	≤ 10 nM	10 to 50 nM	≤ 10 nM
C=CC(=O)Nc1cc(N2CCC(N3CCC(F)CC3)CC2)ccc1Nc1ncc(C#N)c(Nc2ccccc2OC(C)C)n1 [Example 64, N-(2-((5-cyano-4-((2-isopropoxyphenyl)amino)pyrimidin-2-yl)amino)-5-(4-fluoro-[1,4-bipiperidin]-1‘- yl)phenyl) acrylamide]	10 to 50 nM	≤ 10 nM	10 to 50 nM	≤ 10 nM
C=CC(=O)Nc1cc(N2CCC(N3CCC(O)CC3)CC2)ccc1Nc1ncc(C#N)c(Nc2ccccc2OC(C)C)n1 [Example 65, N-(2-((5-cyano-4-((2-isopropoxyphenyl)amino)pyrimidin-2-yl)amino)-5-(4-hydroxy-[1,4-bipiperidin]-1′-yl)phenyl) acrylamide]	10 to 50 nM	≤ 10 nM	≤ 10 nM	≤ 10 nM
C=CC(=O)Nc1cc(N2CCC(N3CCC(C#N)CC3)CC2)ccc1Nc1ncc(C#N)c(Nc2ccccc2OC(C)C)n1 [Example 66, N-(2-((5-cyano-4-((2-isopropoxyphenyl)amino)pyrimidin-2-yl)amino)-5-(4-cyano-[1,4-bipiperidin]-1′-yl)phenyl) acrylamide]	≤ 10 nM	≤ 10 nM	10 to 50 nM	≤ 10 nM
C=CC(=O)Nc1cc(N2CCC(N(C)CC(C)(C)O)CC2)ccc1Nc1ncc(C#N)c(Nc2ccccc2OC(C)C)n1 [Example 67, N-(2-((5-cyano-4-((2-isopropoxyphenyl)amino)pyrimidin-2-yl)amino)-5-(4-((2-hydroxy-2-methylpropyl) (methyl)amino)piperidin-1-yl)phenyl) acrylamide]	10 to 50 nM	≤ 10 nM	≤ 10 nM	≤ 10 nM
C=CC(=O)Nc1cc(N2CCC(N(C)CCCO)CC2)ccc1Nc1ncc(C#N)c(Nc2ccccc2OC(C)C)n1 [Example 68, N-(2-((5-cyano-4-((2-isopropoxyphenyl)amino)pyrimidin-2-yl)amino)-5-(4-((3-hydroxypropyl) (methyl)amino)piperidin-1-yl)phenyl) acrylamide]	≤ 10 nM	≤ 10 nM	≤ 10 nM	≤ 10 nM
C=CC(=O)Nc1cc(N2CCC(N(C)CCCOC)CC2)ccc1Nc1ncc(C#N)c(Nc2ccccc2OC(C)C)n1 [Example 69, N-(2-((5-cyano-4-((2-isopropoxyphenyl)amino)pyrimidin-2-yl)amino)-5-(4-((3-methoxypropyl) (methyl)amino)piperidin-1-yl)phenyl) acrylamide]	≤ 10 nM	≤ 10 nM	≤ 10 nM	≤ 10 nM
C=CC(=O)Nc1cc(N2CCC(N3CCC3)CC2)ccc1Nc1ncc(C#N)c(Nc2ccccc2OC(C)C)n1 [Example 70, N-(5-(4-(azetidin-1-yl)piperidin-1-yl)-2-((5-cyano-4-((2-isopropoxyphenyl)amino)pyrimidin-2-yl)amino)phenyl) acrylamide]	50 to 100 nM	≤ 10 nM	≤ 10 nM	≤ 10 nM
C=CC(=O)Nc1cc(N2CCC(N3CCC(F)(F)CC3)CC2)ccc1Nc1ncc(C#N)c(Nc2ccccc2OC(C)C)n1 [Example 71, N-(2-((5-cyano-4-((2-isopropoxyphenyl)amino)pyrimidin-2-yl)amino)-5-(4,4-difluoro-[1,4-bipiperidin]-1′-yl)phenyl) acrylamide]	≤ 10 nM	10 to 50 nM	50 to 100 nM	≤ 10 nM
C=CC(=O)Nc1cc(N2CCC(N(C)C3COC3)CC2)ccc1Nc1ncc(C#N)c(Nc2ccccc2OC(C)C)n1 [Example 72, N-(2-((5-cyano-4-((2-isopropoxyphenyl)amino)pyrimidin-2-yl)amino)-5-(4-(methyl(oxetan-3-yl)amino)piperidin-1-yl)phenyl) acrylamide]	≤ 10 nM	≤ 10 nM	10 to 50 nM	≤ 10 nM
C=CC(=O)Nc1cc(N2CCC(N(C)CCSC)CC2)ccc1Nc1ncc(C#N)c(Nc2ccccc2OC(C)C)n1 [Example 73]	≤ 10 nM	≤ 10 nM	≤ 10 nM	≤ 10 nM
C=CC(=O)Nc1cc(N2CCC(N(C)CCCSC)CC2)ccc1Nc1ncc(C#N)c(Nc2ccccc2OC(C)C)n1 [Example 74]	≤ 10 nM	10 to 50 nM	≤ 10 nM	≤ 10 nM
C=CC(=O)Nc1cc(N2CCC(N(C)CCCS(C)(=O)=O)CC2)ccc1Nc1ncc(C#N)c(Nc2ccccc2OC(C)C)n1 [Example 75, N-(2-((5-cyano-4-((2-isopropoxyphenyl)amino)pyrimidin-2-yl)amino)-5-(4-(methyl(3-(methylsulfonyl)propyl)amino)piperidin-1-yl)phenyl) acrylamide]	≤ 10 nM	≤ 10 nM	≤ 10 nM	≤ 10 nM
C=CC(=O)Nc1cc(N2CCC(N3CCS(=O)(=O)CC3)CC2)ccc1Nc1ncc(C#N)c(Nc2ccccc2OC(C)C)n1 [Example 76, N-(2-((5-cyano-4-((2-isopropoxyphenyl)amino)pyrimidin-2-yl)amino)-5-(4-(1,1-dioxidothiomorpholino)piperidin-1-yl)phenyl) acrylamide]	10 to 50 nM	≤ 10 nM	10 to 50 nM	≤ 10 nM
C=CC(=O)Nc1cc(N2CCC(N(C)C3CCOC3)CC2)ccc1Nc1ncc(C#N)c(Nc2ccccc2OC(C)C)n1 (stereo not drawn) [Example 77, N-(2-((5-cyano-4-((2-isopropoxyphenyl)amino)pyrimidin-2-yl)amino)-5-(4-(methyl (tetrahydrofuran-3-yl)amino)piperidin-1-yl)phenyl) acrylamide]	≤ 10 nM	≤ 10 nM	≤ 10 nM	≤ 10 nM
C=CC(=O)Nc1cc(N2CCC(N(C)C3CCOCC3)CC2)ccc1Nc1ncc(C#N)c(Nc2ccccc2OC(C)C)n1 [Example 78, N-(2-((5-cyano-4-((2-isopropoxyphenyl)amino)pyrimidin-2-yl)amino)-5-(4-(methyl(tetrahydro-2H-pyran-4-yl)amino)piperidin-1-yl)phenyl) acrylamide]	≤ 10 nM	≤ 10 nM	≤ 10 nM	≤ 10 nM
C=CC(=O)Nc1cc(N2CCC(N3CCN(C)CC3)CC2)ccc1Nc1ncc(C#N)c(Nc2ccccc2CC(C)C)n1 [Example 79, N-(2-((5-cyano-4-((2-isobutylphenyl)amino)pyrimidin-2-yl)amino)-5-(4-(4-methylpiperazin-1-yl)piperidin-1-yl)phenyl)acrylamide]	10 to 50 nM	10 to 50 nM	50 to 100 nM	10 to 50 nM
C=CC(=O)Nc1cc(N2CCC(N3CCN(C)CC3)CC2)ccc1Nc1ncc(C#N)c(Nc2ccccc2S(=O)(=O)C(C)C)n1 [Example 80, N-(2-((5-cyano-4-((2-(isopropylsulfonyl)phenyl)amino)pyrimidin-2-yl)amino)-5-(4-(4-methylpiperazin-1-yl)piperidin-1-yl)phenyl) acrylamide]	≤ 10 nM	≤ 10 nM	≤ 10 nM	≤ 10 nM
